Experimental data reported in PMC9970268 (Cancer Research Communications, 2022).

Tests used:
Cdc42 [1] = biological target: T1, Cdc42 (Homo sapiens, UniProt P60953); assay: Nucleotide association assay, induced by EDTA; type: biochemical; parameters: purchased Cytoskeleton, Inc; details: for EDTA-induced nucleotide loading of N-MAR-GTP on Cdc42: 2 and 10 μmol/L
Description: (§1) The nucleotide loading on purified Rho GTPases was monitored using a fluorophore-based Rho GEF Exchange Assay Kit as per manufacturer's instructions (Cytoskeleton, Inc.). Drugs were diluted in exchange buffer and incubated with Rac1, Cdc42, or RhoA. The uptake of fluorescent nucleotide analog N-methylanthraniloyl-GTP (N-MAR-GTP) was measured as an increase in fluorescence due to binding to the nucleotide binding pocket of a GTPase. The fluorimeter was set at 20°C on kinetic mode and N-MAR GTP was detected at […]. After the initial five readings (T0), GEFs (Dbs or Vav2) or Ethylenediaminetetraacetic acid (EDTA) was added to stimulate exchange and readings were obtained every 30 seconds for at least 60 cycles.

[2] = system: Rac, Cdc42, RhoA, PAK, and p-PAK; assay: Western blot of tumor lysates from treated mice; type: in vivo, SCID mice; details: GFP-HER2-BM tumors, 5 mg/kg BW, 53 days
From the text: Treatments continued until sacrifice at day 53.
(§2) Total cell lysates or pulldowns were Western blotted using routine procedures. The primary antibodies used were anti-Rac (Cell Signaling Technology), anti-Cdc42 (Abcam), anti-PAK1+PAK2+PAK3 (Cell Signaling Technology), anti-pPAK1 (T423)/PAK2 (T402; Abcam), anti-PAK1 + PAK2 + PAK3 (phospho T423; Abcam), Rac1B, and β-actin (Millipore-Sigma).

CYP3A4 = biological target: T2, CYP3A4 (Homo sapiens, UniProt P08684); assay: CyP450 enzyme assay (P450-Glo); type: in vitro ADME; details: for IC50: recombinant human CYP enzyme, 0.001–100 μmol/L
T2 construct: purchased Promega
Description: (§3) The assay was carried out using P450-Glo Screening System (Promega). The system contained recombinant human CYP enzyme and P450 reductase (and cytochrome b5 for CYP2C9, 2C19, and 3A4), luminogenic substrates appropriate for each CYP enzyme, a NADPH regeneration system (containing NADP+), and luciferin detection reagent. […] These compounds and organic solvents acetonitrile, and DMSO were purchased from Sigma-Aldrich.
(§4) First, 12.5 μL of the 4X stock solution of test compounds or positive controls (appropriate for each enzyme) were added to the “treated” wells. For the “untreated” (the values from these wells represent total CYP activity) and “minus-P450 control” wells (the values from these wells represent the CYP-independent background luminescence of the assay), 12.5 μL of vehicle was added. Then, 12.5 μL of the 4X control reaction mixture (containing membrane preparations devoid of CYP enzymes, the appropriate luminogenic substrate, and potassium phosphate buffer) were added to the minus-P450 control wells, and 12.5 μL of the 4X reaction mixture (containing human CYP membrane preparations, the appropriate luminogenic substrate, and potassium phosphate buffer) were added to all other wells. The plates were preincubated at room temperature for 10 minutes with the reaction mixture (membrane with enzyme, substrate, and 1 mol/L potassium phosphate buffer), and then 2X NADPH regeneration system was added to initiate the reaction. After incubation at room temperature for 30 minutes, 50 μL of the Luciferin Detection Reagent was added to stop the reaction and generate the luminescent signal. Before reading, the plate was incubated at room temperature for 20 minutes to stabilize the luminescent signal. The luminescence was measured using an Infinite F200 plate reader (Tecan). […] The percentage of CYP enzyme activity versus log concentration of test compounds were plotted to calculate the IC50 values.

CYP2C19 = biological target: T3, CYP2C19 (Homo sapiens, UniProt P33261); assay: CyP450 enzyme assay (P450-Glo); type: in vitro ADME
T3 construct: purchased Promega
Description: as §3, §4

CYP2C9 = biological target: T4, CYP2C9 (Homo sapiens, UniProt P11712); assay: CyP450 enzyme assay (P450-Glo); type: in vitro ADME; details: recombinant human CYP enzyme, 0.001–100 μmol/L
T4 construct: purchased Promega
Description: as §3, §4

Cdc42 [3] = biological target: T1, Cdc42; assay: Nucleotide association assay, catalyzed by Dbs; type: biochemical; parameters: purchased Cytoskeleton, Inc; details: 2 or 10 μmol/L, N-MAR-GTP
Description: as §1

PAK1/2/3 = assay: Western blot of PAK phosphorylation in MDA-MB-231 cells; type: cell-based, human; details: MDA-MB-231, 250 nmol/L
From the text: as §2

MCF7 breast cancer cells = assay: Cell viability (MTT) assay; type: cell-based, human; details: 250 nmol/L, 120 hr
Description: (§5) Using CellTiter 96 Non-Radioactive Cell Proliferation Assay (Promega, Corp.) according to manufactures’ instructions, formazan was used as an indicator of viable cells at an absorbance 570 nm in a Tecan Microplate Reader M100 (Tecan). Data were calculated as fold change from vehicle and transformed to logarithm base 10. 0 concentration was replaced with 1 nmol/L to fit using the 4-parameter logic nonlinear regression model in GraphPad Prism software. (n = 3 biologic replicates: with three technical replicates each).
Supplementary Figure S1. Percentage cell viability of MDA-MB-231, GFP-HER2-BM, […]
nM for 120 hr. The bar graphs are presented as individual fold change data points from vehicle and grouped mean ± SEM. (n = 3; *, P < 0.05; ** P < 0.01).
(1 picture or pasted object on this page, not shown here)

MCF10A cells = assay: Cell viability (MTT) assay; type: cell-based, human; details: for inhibition of cell viability: 250 nmol/L, 120 hr; for GI50: Homo sapiens, MCF-10A, 120 hours, 0 to 1,000 nmol/L
Description: as §5
(§6) All half maximal growth inhibitory concentration (GI50) values were determined by using the 4-parameter logistic curve model in GraphPad Prism 9 software. Statistical analyses were done also using GraphPad Prism 9 software, and differences were considered statistically significant at P ≤ 0.05 using ordinary one-way ANOVA or unpaired Student t test with Dunnet multiple comparison tests.

MDA-MB-231 cells [4] = assay: Cell viability (MTT) assay; type: cell-based, human; details: for inhibition of cell viability: 250 nmol/L, 120 hr; for GI50: 120 hours, 0 to 1,000 nmol/L
Description: as §5, §6

GFP-HER2-BM cells = assay: Cell viability (MTT) assay; type: cell-based, human; details: for GI50: 0 to 1,000 nmol/L
Description: as §5, §6

MDA-MB-231 cells [5] = assay: Wound healing assay; type: cell-based, human; details: 250 nmol/L; 12 and 24 hours
Description: MDA-MB-231 cells were plated on 12-well plates at equal cell density until confluent. Then the media was changed to 1% FBS, and a single scratch was made in the center of the monolayer culture with a pipet tip. Compounds were added immediately at 250 or 500 nmol/L and images were digitally acquired from a Keyence microscope (10×) at 0, 12, and 24 hours. The scratch area was quantified in ImageJ using the Macro Wound Healing Tool (http://dev.mri.cnrs.fr/projects/imagej-macros/wiki/Wound_Healing_Tool; n = 3 biologic replicates: with three technical replicates each).

T1 sequence (P60953 whole entry): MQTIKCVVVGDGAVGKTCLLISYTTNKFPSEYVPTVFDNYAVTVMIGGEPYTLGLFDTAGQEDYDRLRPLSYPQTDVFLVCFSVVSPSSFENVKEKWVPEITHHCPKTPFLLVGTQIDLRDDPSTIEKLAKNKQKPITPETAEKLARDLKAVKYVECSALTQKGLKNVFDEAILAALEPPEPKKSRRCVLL
T2 sequence (P08684 whole entry): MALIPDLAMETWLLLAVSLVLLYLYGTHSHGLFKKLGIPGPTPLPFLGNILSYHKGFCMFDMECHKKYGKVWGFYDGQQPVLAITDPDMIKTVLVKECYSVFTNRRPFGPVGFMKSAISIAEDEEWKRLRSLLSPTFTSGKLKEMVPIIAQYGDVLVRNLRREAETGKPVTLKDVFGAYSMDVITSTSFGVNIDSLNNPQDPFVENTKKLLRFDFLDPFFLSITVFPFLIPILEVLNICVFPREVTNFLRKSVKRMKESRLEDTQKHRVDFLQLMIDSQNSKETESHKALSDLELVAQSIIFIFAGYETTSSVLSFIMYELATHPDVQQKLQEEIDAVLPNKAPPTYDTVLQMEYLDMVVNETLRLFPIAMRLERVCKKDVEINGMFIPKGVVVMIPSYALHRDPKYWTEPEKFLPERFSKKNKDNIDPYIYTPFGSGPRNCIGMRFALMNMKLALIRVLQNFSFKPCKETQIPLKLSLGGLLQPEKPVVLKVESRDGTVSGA
T3 sequence (P33261 whole entry): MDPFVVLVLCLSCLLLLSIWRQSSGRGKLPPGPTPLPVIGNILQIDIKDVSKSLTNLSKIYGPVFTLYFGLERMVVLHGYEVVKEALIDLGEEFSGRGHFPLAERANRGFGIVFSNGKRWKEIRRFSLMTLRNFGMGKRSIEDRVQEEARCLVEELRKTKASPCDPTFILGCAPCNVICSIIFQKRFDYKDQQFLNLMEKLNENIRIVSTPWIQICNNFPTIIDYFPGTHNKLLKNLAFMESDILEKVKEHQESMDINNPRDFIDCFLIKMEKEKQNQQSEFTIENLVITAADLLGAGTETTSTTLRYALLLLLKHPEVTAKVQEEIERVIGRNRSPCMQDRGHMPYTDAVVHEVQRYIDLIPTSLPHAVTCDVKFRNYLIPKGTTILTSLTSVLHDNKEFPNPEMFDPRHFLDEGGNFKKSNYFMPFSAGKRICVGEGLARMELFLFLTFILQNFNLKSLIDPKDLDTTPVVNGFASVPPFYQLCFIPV
T4 sequence (P11712 whole entry): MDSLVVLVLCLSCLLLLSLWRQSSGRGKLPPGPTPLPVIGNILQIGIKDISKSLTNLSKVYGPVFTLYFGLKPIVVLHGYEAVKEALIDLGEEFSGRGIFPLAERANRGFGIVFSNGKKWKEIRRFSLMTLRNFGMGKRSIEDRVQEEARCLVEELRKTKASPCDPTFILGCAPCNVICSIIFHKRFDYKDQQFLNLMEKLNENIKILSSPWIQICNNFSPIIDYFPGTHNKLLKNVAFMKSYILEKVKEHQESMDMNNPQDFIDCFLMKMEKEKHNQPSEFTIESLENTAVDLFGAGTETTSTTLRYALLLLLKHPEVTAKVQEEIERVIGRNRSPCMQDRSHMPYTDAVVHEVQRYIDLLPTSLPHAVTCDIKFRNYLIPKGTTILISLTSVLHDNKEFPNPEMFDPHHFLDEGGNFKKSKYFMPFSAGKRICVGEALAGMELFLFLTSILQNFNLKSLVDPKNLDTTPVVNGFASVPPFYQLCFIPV

| SMILES | EDTA-induced nucleotide loading of N-MAR-GTP on Cdc42 (Cdc42 [1]) | Cdc42 and RhoA levels [2] | reduction of Thr 423 phosphorylation in PAKs 1, 2, 3 compared with vehicle [2] | reduction of p-Serine 141,144,154 levels in PAK1, 2, and 3 [2] | total Rac, and PAK1/2/3 levels [2] | IC50 (CYP3A4) [µM] | IC50 (CYP2C9) [µM] | inhibition of GTP loading on Cdc42 catalyzed by Dbs (Cdc42 [3]) | reduction of p-PAK1/3 levels (Thr423) (PAK1/2/3) | reduction of p-PAK2 S144 (61 kD band) (PAK1/2/3) | reduction of p-PAK2 T423 (61 kD band) (PAK1/2/3) | inhibition of cell viability (MCF7 breast cancer cells) [%] | inhibition of cell viability (MCF10A cells) [%] | GI50 (MCF10A cells) [µM] | inhibition of cell viability (MDA-MB-231 cells [4]) [%] | inhibition of cell viability (GFP-HER2-BM cells; 250 nmol/L, 120 hr) | inhibition of cell viability (GFP-HER2-BM cells; 500 nmol/L, 72 hours) | wound closure (MDA-MB-231 cells [5]) | also measured |
| --- | --- | --- | --- | --- | --- | --- | --- | --- | --- | --- | --- | --- | --- | --- | --- | --- | --- | --- | --- |
| CCn1c2ccccc2c2cc(-n3nncc3-c3ccccc3)ccc21 [MBQ-167] | inhibited the nucleotide loading of N-MAR-GTP at 10 μmol/L | remain unaffected | approximately 50% | did not show changes | Decreases were observed | 0.28 | 0.89 | did not affect | approximately 75% | approximately 50% | approximately 60% | 40 | 30 | 0.296 | 50 | approximately 85% | approximately 75% | wound area was maintained at 12 and 24 hours | IC50 (CYP2C19; recombinant human CYP enzyme, 0.001–100 μmol/L): 0.455 µM; GI50 (MDA-MB-231 cells [4]): ~0.16 µM; GI50 (MDA-MB-231 cells [4]; Homo sapiens, MDA-MB-231, 120 h): 0.162 µM; GI50 (GFP-HER2-BM cells; 120 hours): ~0.16 µM; GI50 (GFP-HER2-BM cells; Homo sapiens, 120 h): 0.163 µM |
| CCn1c2ccccc2c2cc(-n3nncc3-c3cccc(OC)c3)ccc21 [MBQ-168] | reduced nucleotide loading at both 2 and 10 μmol/L | remain unaffected | approximately 50% | approximately 75% | Decreases were observed | 3.18 | 0.67 | 10%–20% | approximately 100% | approximately 50% | approximately 100% | 40 | 30 | 0.304 | 50 | approximately 85% | approximately 75% | wound area was maintained at 12 and 24 hours | inhibition at 10 µM (Cdc42 [1]; 10 μmol/L, N-MAR-GTP, read-out: inhibition of EDTA-induced GTP exchange on Cdc42): 100%; potency at inhibiting CYP3A4, times less potent than MBQ-167 (CYP3A4): approximately 10 X; CYP2C19 IC50, fold lower than the IC50 for the positive control (CYP2C19): approximately 6 fold; IC50 at 30 min (CYP2C19; human, recombinant human CYP enzyme, 0.001–100 μmol/L): 0.523 µM; decrease of p-PAK ser 141, 154, PAK1/3 (68 kD band) (PAK1/2/3): approximately 95%; GI50 (MDA-MB-231 cells [4]; Homo sapiens, MDA-MB-231): 0.199 µM; GI50 (GFP-HER2-BM cells; Homo sapiens, 120 hours): 0.171 µM |
